Biological target: T1, TUBA1C (Homo sapiens, UniProt Q9BQE3)
T1 construct: endogenous protein in live HeLa cells, no tag; modified C-terminal peptides 423-449 and 431-449
Assay: live-cell photoaffinity labelling, biotin enrichment, TMT LC-MS/MS
Format: cell-based
Conditions: covalent after UV 365 nm; live HeLa cells; C-terminal acidic region

T1 sequence (Q9BQE3 whole entry): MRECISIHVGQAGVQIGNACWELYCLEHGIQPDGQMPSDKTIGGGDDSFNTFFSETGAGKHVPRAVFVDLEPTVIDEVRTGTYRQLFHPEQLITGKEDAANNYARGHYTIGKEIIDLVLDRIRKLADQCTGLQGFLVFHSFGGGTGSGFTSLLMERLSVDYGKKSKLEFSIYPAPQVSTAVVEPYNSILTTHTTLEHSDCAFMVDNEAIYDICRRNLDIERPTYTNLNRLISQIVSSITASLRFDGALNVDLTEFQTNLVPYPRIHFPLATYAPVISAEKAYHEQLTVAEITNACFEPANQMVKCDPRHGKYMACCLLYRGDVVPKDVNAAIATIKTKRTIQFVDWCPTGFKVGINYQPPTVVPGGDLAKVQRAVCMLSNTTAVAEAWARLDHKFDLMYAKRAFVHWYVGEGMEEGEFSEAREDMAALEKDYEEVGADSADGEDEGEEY

| live-cell photoaffinity labelling, biotin enrichment, TMT LC-MS/MS | Compound |
| --- | --- |
| several tubulins (including TUBA1C) | C#CCCC1(CCNCCCCNCCCN)N=N1 [compound 4, spermidine analog 4] |
| several tubulins (including TUBA1C) | C#CCCC1(CCNCCCNCCCCN)N=N1 [compound 5, spermidine analog 5] |

— article PMC12461607, “Profiling polyamine–protein interactions in live cells through photoaffinity labeling” (RSC Chemical Biology, 2025)
